Earlier results on one molecule are cited in patent US20130136752A1, “Ophthalmic Formulations” (OXIGENE, INC., priority 2010, published 2013).

The test system of data set [1] is vessels with anomalous structure.
The subject of data set [2] is choroidal neovascularization (CNV). To be noted: rho/VEGF mice, P7 to P21.

Take `COc1ccc(/C=C\c2cc(OC)c(OC)c(OC)c2)cc1OP(=O)(O)O` [CA4P, combretastatin A4 phosphate]: the “systemic dose levels disrupting aberrant vessels” value in data set [1] (aberrant vessels induced by overexpression of VEGF or by exposure to elevated oxygen) is 3 to 4 mg/kg. Further, the “systemic dose level required for normal immature vessels” value in data set [1] (normal immature vessels induced by burn injury) is 75 mg/kg. In addition, the “neovascular lesions at P21” value in data set [2] (2.2 mg/kg daily IP) is “numerous neovascular lesions”. Further, the “number of neovascular lesions and total area of neovascularization per retina versus vehicle” value in data set [2] (4.0 mg/kg daily IP) is listed as “significant reduction”.
